What was measured:
[1] = tested on: pulmonary artery smooth muscles derived from patients with pulmonary arterial hypertension; experiment: MTT assay of cell proliferation of pulmonary artery smooth muscle cells from patients; assay type: cell-based, human; conditions: for suppressive effect on proliferation of pulmonary artery smooth muscle cells: final concentration 5 μM, same method as Example 1, data not shown
From the text: The preventive or therapeutic agent for pulmonary hypertension of the present invention prevents or treats and ameliorates pulmonary hypertension by at least suppressing excessive proliferation of pulmonary artery smooth muscle cells. Accordingly, the present invention also provides a suppressor for excessive proliferation of pulmonary artery smooth muscle cells containing emetine or a salt thereof. […] However, emetine serving as the active ingredient of the present invention is a compound quite different in structure from IMD-0354 described above. Further, the inventors of the present invention examined N-p-tosyl-L-phenylalanine chloromethyl ketone, caffeic acid phenethyl ester, and Nα-p-tosyl-L-lysine chloromethyl ketone hydrochloride serving as compounds known to have NF-κB-inhibiting actions for their suppressive effects on the proliferation of pulmonary artery smooth muscle cells derived from patients with pulmonary hypertension by the same method as that described in Example 1 to be described later except that each of these compounds was added so that its final concentration was 5 μM. […] Also from such viewpoints, the suppressive effect of emetine on excessive proliferation of pulmonary artery smooth muscle cells and the preventive or therapeutic effect of emetine on pulmonary hypertension in the present invention are unpredictable from the related art. The active ingredient, dosage form, dose, and the like of the suppressor for excessive proliferation of pulmonary artery smooth muscle cells are the same as those of the preventive or therapeutic agent for pulmonary hypertension.
Pulmonary artery smooth muscles derived from patients with pulmonary arterial hypertension were treated with 1 nmol/L to 5 μmol/L emetine solutions (the emetine solutions were prepared with distilled water), and were cultured for 0 hours and 48 hours, followed by an MTT assay to assess cell proliferation rates. Specifically, smooth muscle cells were seeded in 96-well plates at 5,000 cells/well, and 24 hours after the seeding, emetine was added so that its final concentrations were adjusted to from 1 nmol/L to 5 μmol/L. The results are shown in FIG. 1.

[2] = tested on: transcription factor NF-κB; conditions: Non-patent Literature 4 and 5; cited from earlier work
[3] = tested on: pulmonary artery smooth muscle cells; conditions: Non-patent Literature 5; cited from earlier work
[4] = tested on: monocrotaline-induced pulmonary hypertension model; experiment: monocrotaline-induced pulmonary hypertension model; assay type: in vivo, rats (SD rats); conditions: 0.01 mg/kg or 0.05 mg/kg orally daily for 3 weeks after 60 mg/kg monocrotaline s.c.; vs control group; FIG. 2
Method: In vivo tests using pulmonary hypertension animal models were performed on emetine. Specifically, first, the influence of emetine on a monocrotaline-induced pulmonary hypertension model was investigated. A monocrotaline solution used for the production of the pulmonary hypertension model was prepared by dissolving monocrotaline with 1 mol/L hydrochloric acid and then adjusting the pH to 7.4 through titration with 1 mol/L sodium hydroxide using a pH meter. An emetine solution was prepared with distilled water. The monocrotaline-induced pulmonary hypertension model was produced by subcutaneously injecting 6-week-old rats (SD rats, n=13) with 60 mg/kg monocrotaline. After the subcutaneous injection with monocrotaline, the rats were orally administered 0.01 mg/kg or 0.05 mg/kg emetine daily for 3 weeks. A vehicle group was sacrificed 3 weeks after the administration of distilled water to measure right ventricular systolic pressure with Mikro-Tip Catheter transducers 2F (Millar). In addition, after formalin fixation, the right ventricle was removed from the left ventricle to measure a right ventricle/(left ventricle plus septum) weight ratio. Then, the extent of pulmonary hypertension was assessed on the basis of those results.

SU5416/Hypoxia model = experiment: SU5416/Hypoxia pulmonary hypertension model; assay type: in vivo, rats (SD rats); conditions: 0.01 mg/kg or 0.05 mg/kg orally daily, week 8 to week 11 after SU5416; vs control group; FIG. 3
Method: In addition, an in vivo test using an SU5416/Hypoxia model was also performed. Specifically, first, an SU5416 (semaxanib) solution used for the production of the model was prepared by dissolving SU5416 using carboxy methyl cellulose (CMC). An emetine solution was prepared in the same manner as described above.
Six-week-old rats (SD rats, n=9) were administered 20 mg/kg SU5416 and then bred in a hypoxic chamber using a hypoxicator to be exposed to hypoxia (oxygen concentration: from 8% to 12%) for 3 weeks and then to normoxia. Then, the rats were orally administered 0.01 mg/kg or 0.05 mg/kg emetine daily for a period from the first day of week 8 after the SU5416 administration to the final day of week 11, and were sacrificed on the final day of week 11. Then, the extent of pulmonary hypertension was assessed in the same manner as in the monocrotaline-induced pulmonary hypertension model.

O=C(/C=C/c1ccc(O)c(O)c1)OCCc1ccccc1 [caffeic acid phenethyl ester]
suppressive effect on proliferation of pulmonary artery smooth muscle cells [1]: not sufficiently suppressed

O=C(Nc1cc(C(F)(F)F)cc(C(F)(F)F)c1)c1cc(Cl)ccc1O [IMD-0354, N-[3,5-bis(trifluoromethyl)phenyl]-5-chloro-2-hydroxybenzamide]
NF-κB inhibition [2]: has an NF-κB-inhibiting action | proliferation of pulmonary artery smooth muscle cells [3]: suppresses the proliferation of pulmonary artery smooth muscle cells

Cc1ccc(S(=O)(=O)N[C@@H](CCCCN)C(=O)CCl)cc1.Cl [Nα-p-tosyl-L-lysine chloromethyl ketone hydrochloride]
suppressive effect on proliferation of pulmonary artery smooth muscle cells [1]: not sufficiently suppressed

Cc1ccc(S(=O)(=O)N[C@@H](Cc2ccccc2)C(=O)CCl)cc1 [N-p-tosyl-L-phenylalanine chloromethyl ketone]
suppressive effect on proliferation of pulmonary artery smooth muscle cells [1]: not sufficiently suppressed

CC[C@H]1CN2CCc3cc(OC)c(OC)cc3[C@@H]2C[C@@H]1C[C@H]1NCCc2cc(OC)c(OC)cc21 [emetine]
cell proliferation rate (MTT assay) ([1]; emetine 1 nmol/L to 5 μmol/L, cultured 48 hours, FIG. 1): suppressed proliferation of the pulmonary artery smooth muscles derived from patients with pulmonary arterial hypertension in a concentration-dependent manner | right ventricle/(left ventricle plus septum) weight ratio [4]: suppressed | right ventricular systolic pressure [4]: suppressed | right ventricle/(left ventricle plus septum) weight ratio (SU5416/Hypoxia model): alleviated | right ventricular systolic pressure (SU5416/Hypoxia model): alleviated | NF-κB inhibition [2]: known to inhibit a transcription factor NF-κB

— patent US10772882B2, “Pulmonary hypertension preventative or therapeutic agent containing crude drug” (TOHOKU UNIVERSITY, priority 2016, dated 2020)
